Consider 25 compounds from ChEMBL document CHEMBL4765390, “Discovery of carboxyl-containing biaryl ureas as potent RORγt inverse agonists” (Eur J Med Chem, 2020).

≈ marks a conversion by molar mass, not a printed value.

For orientation: IC50 means the concentration at which inhibition is half-maximal. By Tmax is commonly meant the time at which the peak concentration occurs. The Cmax is the highest concentration seen after dosing. As a reminder, the AUC(0-t) is the area under the concentration-time curve up to a stated or last time point. A low value points to low exposure. In general, half-life refers to the time in which the quantity being followed falls by half. By clearance is commonly meant a measure of how efficiently the substance is removed, as volume per time. Usually bioavailability stands for dose-corrected exposure relative to a reference, in per cent. Lower therefore signals poor availability.

Data set [1] can be described thus: Aqueous kinetic solubility of the compound at pH 7.4 PBS buffer at 100 uM incubated for 120 mins by LC-MS/MS analysis. Type of data set: physicochemical. To be noted: read-out: Kinetic_solubility.
For data set [2], the target named is T1, Nuclear receptor ROR-gamma (Homo sapiens, UniProt P51449).
T1 sequence (P51449 whole entry): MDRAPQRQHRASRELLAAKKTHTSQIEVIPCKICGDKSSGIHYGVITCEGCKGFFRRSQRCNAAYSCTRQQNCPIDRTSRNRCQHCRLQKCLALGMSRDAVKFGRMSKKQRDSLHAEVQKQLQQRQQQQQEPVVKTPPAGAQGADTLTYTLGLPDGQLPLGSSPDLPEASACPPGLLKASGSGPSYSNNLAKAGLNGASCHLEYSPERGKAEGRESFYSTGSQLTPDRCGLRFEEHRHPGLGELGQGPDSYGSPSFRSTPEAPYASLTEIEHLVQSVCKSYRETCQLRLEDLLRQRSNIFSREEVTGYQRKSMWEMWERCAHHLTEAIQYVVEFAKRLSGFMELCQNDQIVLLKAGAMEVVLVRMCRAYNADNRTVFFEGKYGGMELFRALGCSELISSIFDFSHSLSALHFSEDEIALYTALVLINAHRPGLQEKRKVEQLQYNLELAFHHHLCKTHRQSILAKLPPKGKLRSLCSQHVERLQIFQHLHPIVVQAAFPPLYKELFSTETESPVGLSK
Put plainly: Inverse agonist activity at human RORgammat assessed as inhibition of N-terminal biotinylated co-activator SRC1 recruitment measured after 60 mins by FRET assay.

Data set [3] deals with T2, Nuclear receptor ROR-alpha (Homo sapiens, UniProt P35398).
T2 sequence (P35398 whole entry): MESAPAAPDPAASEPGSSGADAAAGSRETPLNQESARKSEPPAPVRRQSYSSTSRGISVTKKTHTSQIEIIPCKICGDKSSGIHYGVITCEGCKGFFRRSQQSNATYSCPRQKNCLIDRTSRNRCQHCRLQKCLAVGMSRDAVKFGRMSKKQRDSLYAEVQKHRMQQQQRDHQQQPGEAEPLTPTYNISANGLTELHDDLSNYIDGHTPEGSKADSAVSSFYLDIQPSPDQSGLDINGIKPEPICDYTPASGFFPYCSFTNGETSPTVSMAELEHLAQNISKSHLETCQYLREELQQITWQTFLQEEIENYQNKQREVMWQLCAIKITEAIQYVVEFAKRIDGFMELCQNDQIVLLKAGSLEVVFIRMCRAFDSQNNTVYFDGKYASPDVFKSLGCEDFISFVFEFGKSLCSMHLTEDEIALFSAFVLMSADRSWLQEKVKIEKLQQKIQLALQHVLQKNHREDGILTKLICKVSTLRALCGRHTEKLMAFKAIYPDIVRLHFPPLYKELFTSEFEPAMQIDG
Put plainly: Inverse agonist activity at ROR-alpha (unknown origin) expressed in HEK293 cells by Gal4-luciferase reporter assay. It is filed as cell-based. Background: Reporter assays use an easily measured gene product as a stand-in for the process of interest.

In data set [4] the target is T3, Nuclear receptor ROR-beta (Homo sapiens, UniProt Q92753).
T3 sequence (Q92753 whole entry): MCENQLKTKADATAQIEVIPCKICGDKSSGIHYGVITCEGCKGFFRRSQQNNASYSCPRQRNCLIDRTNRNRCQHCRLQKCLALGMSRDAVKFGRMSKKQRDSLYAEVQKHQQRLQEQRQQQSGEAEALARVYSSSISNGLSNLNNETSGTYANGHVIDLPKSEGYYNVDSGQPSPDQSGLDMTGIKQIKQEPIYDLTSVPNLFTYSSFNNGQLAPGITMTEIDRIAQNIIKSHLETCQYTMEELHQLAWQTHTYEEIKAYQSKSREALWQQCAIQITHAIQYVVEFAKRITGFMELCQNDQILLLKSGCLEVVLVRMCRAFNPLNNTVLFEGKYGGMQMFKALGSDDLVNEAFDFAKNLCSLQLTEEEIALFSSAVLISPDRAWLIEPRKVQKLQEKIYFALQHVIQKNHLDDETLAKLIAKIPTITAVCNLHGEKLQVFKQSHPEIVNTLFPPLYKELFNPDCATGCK
Put plainly: Inverse agonist activity at ROR-beta (unknown origin) expressed in HEK293 cells by Gal4-luciferase reporter assay. It is filed as cell-based.

The nature of data set [5]: Tmax in CD-1 mouse at 5 mg/kg, po administered as single dose measured after 24 hrs by LC-MS/MS analysis. It is filed as ADME, organism-based. To be noted: in vivo.
Data set [6] can be described thus: Cmax in CD-1 mouse at 1 mg/kg, iv administered as single dose measured after 24 hrs by LC-MS/MS analysis. Type of data set: ADME, organism-based. To be noted: in vivo. Further details: route intravenous, time 24 hrs, dose 1 mg/kg.
A short description of data set [7]: Cmax in CD-1 mouse at 5 mg/kg, po administered as single dose measured after 24 hrs by LC-MS/MS analysis. Type of data set: ADME, organism-based. On the set-up: route oral, time 24 hrs, dose 5 mg/kg. The following applies: in vivo.
The nature of data set [8]: AUC (0 to last) in CD-1 mouse at 1 mg/kg, iv administered as single dose measured after 24 hrs by LC-MS/MS analysis. It is filed as ADME, organism-based. On the set-up: route intravenous, dose 1 mg/kg, time 24 hrs. The following applies: in vivo.
Data set [9] in a line: AUC (0 to last) in CD-1 mouse at 5 mg/kg, po administered as single dose measured after 24 hrs by LC-MS/MS analysis. It is filed as ADME, organism-based. Further details: route oral, dose 5 mg/kg, time 24 hrs. To be noted: in vivo.
A short description of data set [10]: Volume of distribution at steady state in CD-1 mouse at 1 mg/kg, iv administered as single dose measured after 24 hrs by LC-MS/MS analysis. It is filed as ADME, organism-based. The following applies: in vivo, read-out: Vdss.
A short description of data set [11]: Half life in CD-1 mouse at 1 mg/kg, iv administered as single dose measured after 24 hrs by LC-MS/MS analysis. The following applies: in vivo. Type of data set: ADME, organism-based.
The nature of data set [12]: Half life in CD-1 mouse at 5 mg/kg, po administered as single dose measured after 24 hrs by LC-MS/MS analysis. It is filed as ADME, organism-based. To be noted: in vivo.
A short description of data set [13]: Clearance in CD-1 mouse at 1 mg/kg, iv administered as single dose measured after 24 hrs by LC-MS/MS analysis. Type of data set: ADME, organism-based. The following applies: in vivo.
Data set [14] is described as follows: Oral bioavailability in CD-1 mouse at 5 mg/kg administered as single dose measured after 24 hrs by LC-MS/MS analysis. The following applies: in vivo. Type of data set: ADME, organism-based.

Consider `CCS(=O)(=O)c1ccc(CC(=O)Nc2cc(Cl)c(-c3ccccc3OC(F)(F)F)c(Cl)c2)cc1`, for which the solubility kinetic at 2 h, 100 µM in data set [1] came to 1.25 µg/mL (≈ 2.35 µM).

Take `CCS(=O)(=O)c1ccc(COCc2cc(Cl)c(-c3ccccc3OC(F)(F)F)c(Cl)c2)cc1`: the IC50 in [2] came out at 4410 nM.

As for `O=C(NCc1ccc(C(F)C(=O)O)cc1)Nc1cc(Cl)c(-c2ccccc2OC(F)(F)F)c(Cl)c1` (configuration not stated), the IC50 in data set [2] amounted to 124 nM.

Take `CC(C(=O)O)c1ccc(CNC(=O)Nc2cc(Cl)c(-c3ccccc3OC(F)(F)F)c(C#N)c2)cc1` (configuration not stated): in data set [2], the IC50 was 334 nM.

`CCS(=N)(=O)c1ccc(CNC(=O)Nc2cc(Cl)c(-c3ccccc3OC(F)(F)F)c(Cl)c2)cc1` (configuration not stated): the concentration for half-maximal inhibition (IC50) in data set [2] is 200 nM.

Consider `O=C(NCc1ccc(C(O)C(=O)O)cc1)Nc1cc(Cl)c(-c2ccccc2OC(F)(F)F)c(Cl)c1` (configuration not stated), for which the IC50 in data set [2] amounted to 278 nM.

`NS(=O)(=O)c1ccc(CNC(=O)Nc2cc(Cl)c(-c3ccccc3OC(F)(F)F)c(Cl)c2)cc1`: the IC50 in [2] was 276 nM.

For `CC(C(=O)O)c1ccc(CNC(=O)Nc2cc(Cl)c(-c3ccccc3OC(F)(F)F)c(Cl)c2)nc1` (configuration not stated), in [2], the IC50 is 1780 nM.

Consider `CC(=O)NS(=O)(=O)c1ccc(CNC(=O)Nc2cc(Cl)c(-c3ccccc3OC(F)(F)F)c(Cl)c2)cc1`, for which, in [2], the IC50 turned out to be 138 nM.

`Cc1cc(CC(=O)O)ccc1CNC(=O)Nc1cc(Cl)c(-c2ccccc2OC(F)(F)F)c(Cl)c1`: the IC50 in [2] worked out at 398 nM.

`O=C(O)Cc1ccc(CNC(=O)Nc2cc(Cl)c(-c3ccccc3OC(F)(F)F)c(Cl)c2)cc1`: the solubility kinetic at 2 h, 100 µM in [1] amounted to 84 µg/mL (≈ 164 µM). For the same compound, the concentration for half-maximal inhibition (IC50) in data set [3] and in data set [4] was > 10000 nM in each case. Further, in data set [5], the Tmax was determined as 1 h. For the same compound, the values for the Cmax in data set [6] and in [7] were 1550 ng/mL and 609 ng/mL, respectively. In addition, the AUC(0-t) at 24 h is 1270 ng·h/mL in data set [8] and 2410 ng·h/mL in data set [9]. For the same compound, the Vd in data set [10] came to 1.78 L/kg. Also, the values for the half-life in data set [11] and in data set [12] were 3.04 h and 3.63 h, respectively. The compound further gave a clearance in data set [13] of 13.1 mL/min/kg. The bioavailability in [14] stood at 38.1%.

`O=C(NCc1ccc(C(=O)O)cc1)Nc1cc(Cl)c(-c2ccccc2OC(F)(F)F)c(Cl)c1`: in [2], the IC50 was 1100 nM.

Consider `O=C(O)CCc1ccc(CNC(=O)Nc2cc(Cl)c(-c3ccccc3OC(F)(F)F)c(Cl)c2)cc1`, for which the IC50 in data set [2] was 841 nM.

In the case of `CC(C(=O)O)c1ccc(CNC(=O)Nc2cc(Cl)c(-c3ccccc3OC(F)(F)F)c(Cl)c2)cc1` (configuration not stated), in [2], the IC50 was 541 nM.

For `CCS(=O)(=O)c1ccc(OCC(=O)Nc2cc(Cl)c(-c3ccccc3OC(F)(F)F)c(Cl)c2)cc1`, the IC50 in data set [2] was 99 nM.

As to `O=C(O)Cc1ccc(CNC(=O)Nc2ccc(-c3ccccc3)cc2)cc1`, the half-inhibitory concentration (IC50) in data set [2] was > 30000 nM.

Consider `Cc1cc(CNC(=O)Nc2cc(Cl)c(-c3ccccc3OC(F)(F)F)c(Cl)c2)ccc1CC(=O)O`, for which the IC50 in [2] was determined as 995 nM.

With `CCS(=O)(=O)c1ccc(CNC(=O)c2cc(Cl)c(-c3ccccc3OC(F)(F)F)c(Cl)c2)cc1`, in data set [2], the IC50 was found to be 112 nM.

Consider `CNS(=O)(=O)c1ccc(CNC(=O)Nc2cc(Cl)c(-c3ccccc3OC(F)(F)F)c(Cl)c2)cc1`, for which the concentration for half-maximal inhibition (IC50) in data set [2] amounted to 99.8 nM.

As for `CS(=O)(=O)c1ccc(CNC(=O)Nc2cc(Cl)c(-c3ccccc3OC(F)(F)F)c(Cl)c2)cc1`, the IC50 in data set [2] was found to be 69 nM.

As to `O=C(O)Cc1ccc(CNC(=O)Nc2cc(F)c(-c3ccccc3OC(F)(F)F)c(F)c2)nc1`, the IC50 in data set [2] was found to be 996 nM.

With `Cc1cc(NC(=O)NCc2ccc(CC(=O)O)cn2)cc(C)c1-c1ccccc1OC(F)F`, in [2], the IC50 was 345 nM.

Turning to `O=C(NCc1ccc(C(O)CO)cc1)Nc1cc(Cl)c(-c2ccccc2OC(F)(F)F)c(Cl)c1` (configuration not stated), the IC50 in [2] came out at 584 nM.

For `CCS(=O)(=O)c1ccc(CCOc2cc(Cl)c(-c3ccccc3OC(F)(F)F)c(Cl)c2)cc1`, the IC50 in data set [2] is 426 nM.

Consider `CCS(=O)(=O)c1ccc(CCNc2cc(Cl)c(-c3ccccc3OC(F)(F)F)c(Cl)c2)cc1`, for which the IC50 in data set [2] is 21.6 nM.
